Where two headings read alike, the source gives them in different places. Non-standard residues stand in square brackets, D forms with d. Residues, ends and D or L forms follow the SMILES beside them. *: point of attachment. Sta = CC(C)C[C@H](N)[C@@H](O)CC(=O)O; Isovaleryl = CC(C)CC(=O)*

Broadly, the IC50 is the concentration needed to halve the response being measured. Broadly, the Kd is the free concentration of one partner at which half of the binding sites on the other are occupied at equilibrium, for simple one-to-one binding. Read a high Kd as weaker binding.

Data set [1] addresses T1, hamster Abcb1a Pgp (Cricetulus griseus, UniProt P21448). Put plainly: Fluorosome-trans-pgp.
For another data set, the target named is human MDR1 Pgp (Homo sapiens, UniProt P08183). Put plainly: Inhibition of net [3H]digoxin transport in LLC-MDR1 cell monolayers. Type of data set: cell-based.
For data set [2] the following is noted: humans; ref Fenner et al., 2009; cited from earlier work.
Data set [3] has as its target T1, hamster Abcb1a Pgp. Put plainly: biochemical. Type of data set: binding.
The mark [4] stands for this setting: read-out: IC50 Fl-t-pgp, inhibition of S-HR transport, 2 mM ATP, 23°C.
[5] abbreviates: IC50,Fl, Table 2, half-maximal concentration for inhibition of transport in Fl-t-pgp.
Setting [6] is: IC50 Fl-t-pgp, inhibition of S-HR transport, 2 mM ATP, 23°C.

Sequence of human MDR1 Pgp (P08183 whole entry): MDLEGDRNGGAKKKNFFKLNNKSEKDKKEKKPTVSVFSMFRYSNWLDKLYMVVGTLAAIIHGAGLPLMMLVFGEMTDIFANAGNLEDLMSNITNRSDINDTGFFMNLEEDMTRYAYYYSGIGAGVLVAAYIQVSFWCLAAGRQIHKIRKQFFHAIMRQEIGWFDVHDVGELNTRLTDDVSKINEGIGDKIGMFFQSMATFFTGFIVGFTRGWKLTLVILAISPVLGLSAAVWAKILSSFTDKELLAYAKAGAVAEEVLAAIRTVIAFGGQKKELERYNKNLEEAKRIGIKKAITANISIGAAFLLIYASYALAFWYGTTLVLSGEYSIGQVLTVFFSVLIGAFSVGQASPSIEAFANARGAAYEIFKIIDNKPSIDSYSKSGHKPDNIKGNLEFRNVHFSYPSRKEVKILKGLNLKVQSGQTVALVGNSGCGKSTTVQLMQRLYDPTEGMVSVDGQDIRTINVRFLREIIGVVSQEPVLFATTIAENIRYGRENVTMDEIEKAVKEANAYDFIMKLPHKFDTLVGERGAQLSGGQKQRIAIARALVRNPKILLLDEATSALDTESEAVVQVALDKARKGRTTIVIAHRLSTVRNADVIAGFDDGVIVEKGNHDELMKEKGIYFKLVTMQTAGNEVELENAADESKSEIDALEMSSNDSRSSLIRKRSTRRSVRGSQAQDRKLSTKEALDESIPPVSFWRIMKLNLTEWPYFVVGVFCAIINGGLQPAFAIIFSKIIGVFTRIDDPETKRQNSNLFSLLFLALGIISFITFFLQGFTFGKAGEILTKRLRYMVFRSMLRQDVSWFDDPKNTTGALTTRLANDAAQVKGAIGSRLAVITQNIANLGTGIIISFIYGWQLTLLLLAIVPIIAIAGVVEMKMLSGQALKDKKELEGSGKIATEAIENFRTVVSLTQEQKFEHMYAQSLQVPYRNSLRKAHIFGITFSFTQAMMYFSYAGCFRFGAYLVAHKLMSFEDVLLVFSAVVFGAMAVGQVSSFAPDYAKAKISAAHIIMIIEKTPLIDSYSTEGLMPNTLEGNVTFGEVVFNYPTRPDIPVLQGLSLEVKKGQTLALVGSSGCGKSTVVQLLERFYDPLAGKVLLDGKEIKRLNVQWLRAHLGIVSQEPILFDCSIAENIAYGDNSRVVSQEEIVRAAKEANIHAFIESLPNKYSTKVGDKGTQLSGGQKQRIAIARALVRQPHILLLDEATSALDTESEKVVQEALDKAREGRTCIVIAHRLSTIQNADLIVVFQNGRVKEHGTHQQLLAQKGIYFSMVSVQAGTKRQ
T1 sequence (P21448 whole entry): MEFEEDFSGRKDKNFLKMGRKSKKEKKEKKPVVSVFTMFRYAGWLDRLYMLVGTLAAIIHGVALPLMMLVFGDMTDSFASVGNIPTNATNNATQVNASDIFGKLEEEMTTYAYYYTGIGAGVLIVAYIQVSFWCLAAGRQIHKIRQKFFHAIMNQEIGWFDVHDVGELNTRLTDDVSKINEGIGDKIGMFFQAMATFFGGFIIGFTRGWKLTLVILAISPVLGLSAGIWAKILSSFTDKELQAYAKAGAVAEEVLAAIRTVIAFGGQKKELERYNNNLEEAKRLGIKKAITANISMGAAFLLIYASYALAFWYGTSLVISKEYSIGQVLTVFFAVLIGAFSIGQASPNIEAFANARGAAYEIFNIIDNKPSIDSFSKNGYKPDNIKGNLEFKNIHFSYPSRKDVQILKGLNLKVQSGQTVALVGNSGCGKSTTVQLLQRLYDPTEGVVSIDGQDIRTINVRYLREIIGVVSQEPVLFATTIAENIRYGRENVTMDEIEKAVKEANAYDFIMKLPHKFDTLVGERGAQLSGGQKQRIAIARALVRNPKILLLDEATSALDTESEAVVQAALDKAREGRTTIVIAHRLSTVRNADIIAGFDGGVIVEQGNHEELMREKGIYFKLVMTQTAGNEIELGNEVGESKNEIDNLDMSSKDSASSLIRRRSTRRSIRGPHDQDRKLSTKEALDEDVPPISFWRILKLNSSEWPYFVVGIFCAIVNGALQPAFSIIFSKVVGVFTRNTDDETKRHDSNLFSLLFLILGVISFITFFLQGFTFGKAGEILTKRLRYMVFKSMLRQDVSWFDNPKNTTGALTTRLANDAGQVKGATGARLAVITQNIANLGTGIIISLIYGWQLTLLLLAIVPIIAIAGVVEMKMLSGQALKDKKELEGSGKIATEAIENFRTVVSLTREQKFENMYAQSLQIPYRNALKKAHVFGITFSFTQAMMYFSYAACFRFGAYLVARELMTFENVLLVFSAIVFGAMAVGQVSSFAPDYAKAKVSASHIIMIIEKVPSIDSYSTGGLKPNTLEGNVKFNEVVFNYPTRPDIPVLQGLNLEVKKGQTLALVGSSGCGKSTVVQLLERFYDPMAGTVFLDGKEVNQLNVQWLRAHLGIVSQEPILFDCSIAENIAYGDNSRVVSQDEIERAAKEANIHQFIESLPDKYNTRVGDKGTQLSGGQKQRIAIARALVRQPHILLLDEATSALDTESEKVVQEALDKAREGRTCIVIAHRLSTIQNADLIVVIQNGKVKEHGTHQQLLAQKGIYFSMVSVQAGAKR

With `COc1ccc2c3c([nH]c2c1)[C@H](CC(C)C)N1C(=O)[C@H](CCC(=O)OC(C)(C)C)NC(=O)[C@@H]1C3` [Ko143], the IC50 on hamster Abcb1a Pgp [1] (setting [4]) is 7.5 µM.
Consider `COC(=O)C1=C(C)NC(C)=C(C(=O)OC(C)C)C1c1cccc2nonc12` (centres unmarked) [Isradipine], for which the half-inhibitory concentration (IC50) against human MDR1 Pgp came out at 29 µM; on hamster Abcb1a Pgp [1] (setting [5]) it was 6.6 µM; at hamster Abcb1a Pgp [1] (setting [6]) it was 6.6 µM. The “[I2] estimated gastrointestinal concentration of drug after oral dose” value in data set [2] was 161.5 µM. In addition, in data set [2], the “[I] peak plasma concentration of drug at steady state” value (“[I] peak plasma concentration of drug” below) was 0.02 µM.
With `CC(=O)[C@H]1CC[C@H]2[C@@H]3CCC4=CC(=O)CC[C@]4(C)[C@H]3CC[C@]12C` [Progesterone], the IC50 on hamster Abcb1a Pgp [1] (setting [6]) came to 3.7 µM.
The compound `O[C@@H](COc1cccc2ncccc12)CN1CCN([C@@H]2c3ccccc3[C@@H]3[C@H](c4ccccc42)C3(F)F)CC1` [Zosuquidar] registered a Kd at hamster Abcb1a Pgp [3] (fluorescence quenching of purified Pgp in 2 mM CHAPS) of 55 nM. Further, the half-maximal inhibitory concentration (IC50) on hamster Abcb1a Pgp [1] (setting [4]) was found to be 0.59 µM.
Regarding `COc1ccc([C@@H]2Sc3ccccc3N(CCN(C)C)C(=O)[C@@H]2OC(C)=O)cc1` [Diltiazem], the IC50 against hamster Abcb1a Pgp [1] (setting [5]) turned out to be 24.2 µM; at hamster Abcb1a Pgp [1] (setting [6]), 24 µM.
With `CCCc1nc2c(C)cc(-c3nc4ccccc4n3C)cc2n1Cc1ccc(-c2ccccc2C(=O)O)cc1` [Telmisartan], the IC50 came out at 17 µM on human MDR1 Pgp, 0.12 µM on hamster Abcb1a Pgp [1] (setting [5]) and 0.12 µM on hamster Abcb1a Pgp [1] (setting [6]). The “[I2] estimated gastrointestinal concentration of drug after oral dose” value in data set [2] was 933 µM. The “[I] peak plasma concentration of drug” value in data set [2] is 1.11 µM.
As to `C[C@H]1O[C@@H](O[C@H]2[C@@H](O)C[C@H](O[C@H]3[C@@H](O)C[C@H](O[C@H]4CC[C@@]5(C)[C@H](CC[C@@H]6[C@@H]5C[C@@H](O)[C@]5(C)[C@@H](C7=CC(=O)OC7)CC[C@]65O)C4)O[C@@H]3C)O[C@@H]2C)C[C@H](O)[C@@H]1O` [Digoxin], 80 µM corresponded to half-maximal inhibition on hamster Abcb1a Pgp [1] (setting [6]) (IC50).
In the case of `C[C@]12CC[C@H](O)C[C@H]1CC[C@@H]1[C@@H]2C[C@@H](O)[C@]2(C)[C@@H](C3=CC(=O)OC3)CC[C@]12O` [Digoxigenin], the concentration for half-maximal inhibition (IC50) at hamster Abcb1a Pgp [1] was 520 µM.
As for `COCC(=O)O[C@]1(CCN(C)CCCc2nc3ccccc3[nH]2)CCc2cc(F)ccc2[C@@H]1C(C)C` [Mibefradil], in data set [2], the “[I2] estimated gastrointestinal concentration of drug after oral dose” value is on record as 1211 µM and the “[I] peak plasma concentration of drug” value is listed as 2.42 µM. At hamster Abcb1a Pgp [1] (setting [5]), the IC50 worked out at 7.1 µM. The compound further yielded an IC50 against hamster Abcb1a Pgp [1] (setting [6]) of 7.1 µM.
As to `Cc1c(C)c2c(c(C)c1O)CCC(C)(COc1ccc(CC3SC(=O)NC3=O)cc1)O2` (centres unmarked) [Troglitazone], the IC50 on human MDR1 Pgp came out at 12 µM; against hamster Abcb1a Pgp [1] (setting [5]), 5.2 µM; at hamster Abcb1a Pgp [1] (setting [6]), 5.2 µM. In data set [2], the “[I2] estimated gastrointestinal concentration of drug after oral dose” value is 3264 µM. Also, the “[I] peak plasma concentration of drug” value in data set [2] is 3.62 µM.
With `CC(=O)NC(CC(C)C)C(=O)NC(CC(C)C)C(=O)NC(Cc1ccc(O)cc1)C(N)=O` (stereo not drawn) [NAc-LLY-amide] (Ac-Leu-Leu-Tyr-NH2; configuration not given here), the IC50 on hamster Abcb1a Pgp [1] (setting [4]) was 13 µM.
With `CC(=O)O[C@H]1C(=O)[C@@]2(C)[C@H]([C@H](OC(=O)c3ccccc3)[C@]3(O)C[C@H](OC(=O)[C@H](O)[C@@H](NC(=O)c4ccccc4)c4ccccc4)C(C)=C1C3(C)C)[C@]1(OC(C)=O)CO[C@@H]1C[C@@H]2O` [Paclitaxel], binding on hamster Abcb1a Pgp [3] was put at a Kd of 38 nM. The compound also came in with an IC50 at hamster Abcb1a Pgp [1] (setting [6]) of 1.2 µM.
For the compound `CCOC(=O)C1=C(C)NC(C)=C(C(=O)OC)C1c1cccc([N+](=O)[O-])c1` (centres unmarked) [Nitrendipine], in data set [2], the “[I2] estimated gastrointestinal concentration of drug after oral dose” value is recorded as 222.0 µM and the “[I] peak plasma concentration of drug” value was 0.03 µM. Also, the midpoint of inhibition against hamster Abcb1a Pgp [1] (setting [5]), the IC50, lay at 5.8 µM. The compound also came in with an IC50 against hamster Abcb1a Pgp [1] (setting [6]) of 5.8 µM.
Regarding `CCc1oc2ccccc2c1C(=O)c1cc(Br)c(O)c(Br)c1` [Benzbromarone], the IC50 on hamster Abcb1a Pgp [1] stood at 44 µM.
`C[C@H](CS)C(=O)N1CCC[C@H]1C(=O)O` [Captopril]: on human MDR1 Pgp, the IC50 is above 1000 µM. Further, in data set [2], the “[I2] estimated gastrointestinal concentration of drug after oral dose” value was 230 µM and the “[I] peak plasma concentration of drug” value is on record as 0.23 µM.
On hamster Abcb1a Pgp [3], `COC(=O)[C@H]1[C@H]2C[C@@H]3c4[nH]c5cc(OC)ccc5c4CCN3C[C@H]2C[C@@H](OC(=O)c2cc(OC)c(OC)c(OC)c2)[C@@H]1OC` [Reserpine] yielded a dissociation constant (Kd) of 730 nM. This compound also returned an IC50 against hamster Abcb1a Pgp [1] (setting [6]) of 0.31 µM.
Turning to `CCCCc1oc2ccccc2c1C(=O)c1cc(I)c(OCCN(CC)CC)c(I)c1` [Amiodarone], in data set [2], the “[I2] estimated gastrointestinal concentration of drug after oral dose” value is given as 4693 µM.
On hamster Abcb1a Pgp [1] (setting [6]), `CCCN(CCC)S(=O)(=O)c1ccc(C(=O)O)cc1` [Probenecid] yielded an IC50 of 240 µM.
Turning to `COc1ccccc1OCC(O)CN1CCN(CC(=O)Nc2c(C)cccc2C)CC1` (centres unmarked) [Ranolazine], the IC50 stood at 130 µM on human MDR1 Pgp, 64.1 µM at hamster Abcb1a Pgp [1] (setting [5]) and 64 µM against hamster Abcb1a Pgp [1] (setting [6]). For the same compound, the “[I2] estimated gastrointestinal concentration of drug after oral dose” value in data set [2] is recorded as 9356 µM. For the same compound, the “[I] peak plasma concentration of drug” value in data set [2] is 8.4 µM.
For `COc1cc2c(cc1OC)CN(CCc1ccc(NC(=O)c3cc(OC)c(OC)cc3NC(=O)c3cnc4ccccc4c3)cc1)CC2` [Tariquidar], the midpoint of inhibition against hamster Abcb1a Pgp [1], the IC50, lay at 0.021 µM.
On hamster Abcb1a Pgp [3], `Cc1c(O)cccc1C(=O)N[C@@H](CSc1ccccc1)[C@H](O)CN1C[C@H]2CCCC[C@H]2C[C@H]1C(=O)NC(C)(C)C` [Nelfinavir] showed a Kd of 980 nM. Also, at hamster Abcb1a Pgp [1] (setting [6]), the concentration for half-maximal inhibition (IC50) is 0.59 µM.
For the compound `COc1cc2c(cc1OC)CN(CCc1ccc(NC(=O)c3cccc4c(=O)c5cccc(OC)c5[nH]c34)cc1)CC2` [Elacridar], on hamster Abcb1a Pgp [3], the affinity, expressed as Kd, was 590 nM. Besides, the IC50 at hamster Abcb1a Pgp [1] (setting [6]) was found to be 0.1 µM.
Turning to `COC(=O)C1=C(C)NC(C)=C(C(=O)OCCN(C)Cc2ccccc2)C1c1cccc([N+](=O)[O-])c1` (centres unmarked) [Nicardipine], in data set [2], the “[I2] estimated gastrointestinal concentration of drug after oral dose” value was 248 µM and the “[I] peak plasma concentration of drug” value is given as 0.18 µM. This compound registered a Kd at hamster Abcb1a Pgp [3] of 6500 nM. Moreover, on hamster Abcb1a Pgp [1] (setting [5]), the IC50 amounted to 0.93 µM. In addition, at hamster Abcb1a Pgp [1] (setting [6]), the IC50 came out at 0.93 µM.
`CC(C)CC(=O)N[C@H](C(=O)N[C@H](C(=O)N[C@@H](CC(C)C)[C@@H](O)CC(=O)N[C@@H](C)C(=O)N[C@@H](CC(C)C)[C@@H](O)CC(=O)O)C(C)C)C(C)C` [Pepstatin A] (Isovaleryl-VV[Sta]A[Sta]-OH): 29 µM corresponded to half-maximal inhibition on hamster Abcb1a Pgp [1] (setting [6]) (IC50).
On hamster Abcb1a Pgp [1], `C=CCN1CC[C@]23c4c5ccc(O)c4O[C@H]2C(=O)CC[C@@]3(O)[C@H]1C5` [Naloxone] had an IC50 of 210 µM.
As to `CN[C@H]1CC[C@@H](c2ccc(Cl)c(Cl)c2)c2ccccc21` [Sertraline], the “[I2] estimated gastrointestinal concentration of drug after oral dose” value in data set [2] is recorded as 2612 µM. Moreover, the “[I] peak plasma concentration of drug” value in data set [2] was 0.39 µM. The IC50 against hamster Abcb1a Pgp [1] (setting [5]) and against hamster Abcb1a Pgp [1] (setting [6]) was 29 µM in each case.
The compound `COc1ccc2c(c1)c(CC(=O)O)c(C)n2C(=O)c1ccc(Cl)cc1` [Indomethacin] returned an IC50 on hamster Abcb1a Pgp [1] (setting [6]) of 51 µM.
As to `COc1ccccc1OCCNCC(O)COc1cccc2[nH]c3ccccc3c12` (centres unmarked) [Carvedilol], the figures for the IC50 against human MDR1 Pgp, against hamster Abcb1a Pgp [1] (setting [5]) and at hamster Abcb1a Pgp [1] (setting [6]) were 32 µM, 3.8 µM and 3.8 µM, respectively. Further, in data set [2], the “[I2] estimated gastrointestinal concentration of drug after oral dose” value is reported as 61.5 µM. Besides, the “[I] peak plasma concentration of drug” value in data set [2] is given as 0.13 µM.
The compound `C/C=C/C[C@@H](C)C(=O)[C@H]1C(=O)N[C@@H](C(C)C)C(=O)N(C)CC(=O)N(C)[C@@H](CC(C)C)C(=O)N[C@@H](C(C)C)C(=O)N(C)[C@@H](CC(C)C)C(=O)N[C@@H](C)C(=O)N[C@H](C)C(=O)N(C)[C@@H](CC(C)C)C(=O)N(C)[C@@H](CC(C)C)C(=O)N(C)[C@@H](C(C)C)C(=O)N1C` [Valspodar] came in with a Kd at hamster Abcb1a Pgp [3] of 80 nM. Moreover, on hamster Abcb1a Pgp [1] (setting [6]), it took 0.25 µM to reach half-maximal inhibition (IC50).

The record behind these values is article PMC3322284 (Journal of Pharmacological and Toxicological Methods, 2012).
